Laboratory results as given in ChEMBL document CHEMBL4024706 (Eur J Med Chem, 2017).

Columns and labels:
[1] = biological target: Serine/threonine-protein kinase BRSK1 (Homo sapiens) (UniProt Q8TDC3); test: Inhibition of wild-type human partial length BRSK1 (M1 to E754 residues) expressed in bacterial expression system assessed as residual activity at 1 uM by Kinomescan method relative to control
[2] = tested on: Receptor-type tyrosine-protein kinase FLT3 (Homo sapiens), P36888 [R834Q]; test: Inhibition of human partial length FLT3 R834Q mutant (V592 to Y969 residues) expressed in mammalian expression system assessed as residual activity at 1 uM by Kinomescan method relative to control
[3] = tested on: Epidermal growth factor receptor (Homo sapiens), P00533 [UNDEFINED MUTATION]; test: Inhibition of human partial length EGFR S752-I759del mutant expressed in bacterial expression system assessed as residual activity at 1 uM by Kinomescan method relative to control
[4] = tested on: Tyrosine-protein kinase ABL1 (Homo sapiens), P00519 [F317I]; test: Inhibition of human phosphorylated ABL1 F317I mutant (S229 to K512 residues) expressed in mammalian expression system assessed as residual activity at 1 uM by Kinomescan method relative to control
[5] = biological target: cAMP-dependent protein kinase catalytic subunit PRKX (Homo sapiens) (UniProt P51817); test: Inhibition of wild-type human partial length PRKX (M1 to F358 residues) expressed in bacterial expression system assessed as residual activity at 1 uM by Kinomescan method relative to control
Pfeiffer = test: Cell cycle arrest in human Pfeiffer cells assessed as increase in accumulation at G0/G1 phase after 48 hrs by propidium iodide/RNase staining based flow cytometric method; assay type: functional
[6] = biological target: Tyrosine-protein kinase receptor TYRO3 (Homo sapiens) (UniProt Q06418); test: Inhibition of wild-type human partial length TYRO3 (S497 to T814 residues) expressed in bacterial expression system assessed as residual activity at 1 uM by Kinomescan method relative to control
Chain of Tyrosine-protein kinase receptor TYRO3 (Homo sapiens) (Q06418 whole entry, the tested form may be a part): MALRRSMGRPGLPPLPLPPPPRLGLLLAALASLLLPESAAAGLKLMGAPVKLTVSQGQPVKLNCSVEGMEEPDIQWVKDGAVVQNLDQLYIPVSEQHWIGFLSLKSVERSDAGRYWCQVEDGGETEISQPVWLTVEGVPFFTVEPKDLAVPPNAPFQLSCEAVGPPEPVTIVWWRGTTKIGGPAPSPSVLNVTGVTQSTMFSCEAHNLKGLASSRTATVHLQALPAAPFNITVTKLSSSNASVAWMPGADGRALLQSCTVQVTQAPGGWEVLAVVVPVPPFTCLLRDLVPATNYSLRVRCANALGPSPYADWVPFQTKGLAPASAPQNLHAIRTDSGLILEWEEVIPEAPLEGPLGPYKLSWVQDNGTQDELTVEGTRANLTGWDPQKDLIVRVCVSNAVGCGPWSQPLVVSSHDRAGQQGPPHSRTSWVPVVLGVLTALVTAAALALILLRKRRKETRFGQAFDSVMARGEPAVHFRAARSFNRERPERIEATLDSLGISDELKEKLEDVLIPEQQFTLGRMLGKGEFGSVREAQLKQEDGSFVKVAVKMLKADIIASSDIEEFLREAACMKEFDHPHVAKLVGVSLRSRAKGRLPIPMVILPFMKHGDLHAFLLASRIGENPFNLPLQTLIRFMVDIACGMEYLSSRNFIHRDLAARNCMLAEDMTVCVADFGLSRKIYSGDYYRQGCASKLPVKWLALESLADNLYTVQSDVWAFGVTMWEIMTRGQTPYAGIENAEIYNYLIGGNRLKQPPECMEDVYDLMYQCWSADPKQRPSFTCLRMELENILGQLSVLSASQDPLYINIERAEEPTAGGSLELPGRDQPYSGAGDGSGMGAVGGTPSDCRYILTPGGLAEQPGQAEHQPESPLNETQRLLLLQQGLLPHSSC

[7] = biological target: Atypical kinase COQ8B, mitochondrial (Homo sapiens) (UniProt Q96D53); test: Inhibition of wild-type human full length ADCK4 (M1 to S544 residues) expressed in bacterial expression system assessed as residual activity at 1 uM by Kinomescan method relative to control
[8] = biological target: Protein-tyrosine kinase 6 (Homo sapiens) (UniProt Q13882); test: Inhibition of wild-type human partial length BRK (L166 to T451 residues) expressed in bacterial expression system assessed as residual activity at 1 uM by Kinomescan method relative to control
[9] = biological target: Tyrosine-protein kinase Fgr (Homo sapiens) (UniProt P09769); test: Inhibition of wild-type human partial length FGR (L233 to T529 residues) expressed in bacterial expression system assessed as residual activity at 1 uM by Kinomescan method relative to control
[10] = biological target: Tyrosine-protein kinase JAK1 (Homo sapiens) (UniProt P23458); test: Inhibition of wild-type human partial length JAK1 JH1 catalytic domain (V856 to K1154 residues) expressed in bacterial expression system assessed as residual activity at 1 uM by Kinomescan method relative to control
[11] = biological target: Homeodomain-interacting protein kinase 4 (Homo sapiens) (UniProt Q8NE63); test: Inhibition of wild-type human partial length HIPK4 (M1 to V384 residues) expressed in bacterial expression system assessed as residual activity at 1 uM by Kinomescan method relative to control
[12] = biological target: Ephrin type-A receptor 1 (Homo sapiens) (UniProt P21709); test: Inhibition of wild-type human partial length EPHA1 (V588 to I913 residues) expressed in bacterial expression system assessed as residual activity at 1 uM by Kinomescan method relative to control
[13] = biological target: RAF proto-oncogene serine/threonine-protein kinase (Homo sapiens) (UniProt P04049); test: Inhibition of wild-type human partial length RAF1 (I330 to T640 residues) expressed in bacterial expression system assessed as residual activity at 1 uM by Kinomescan method relative to control
[14] = MRT (0 to t) in Sprague-Dawley rat at 10 mg/kg, po by LC-MS/MS method; assay type: ADME, organism-based; conditions: in vivo
[15] = biological target: Cyclin-dependent kinase 4 (Homo sapiens) (UniProt P11802); test: Inhibition of wild-type human full length CDK4 (M1 to E303 residues) expressed in mammalian expression system assessed as residual activity at 1 uM by Kinomescan method relative to control
Chain of Cyclin-dependent kinase 4 (Homo sapiens) (P11802 whole entry, the tested form may be a part): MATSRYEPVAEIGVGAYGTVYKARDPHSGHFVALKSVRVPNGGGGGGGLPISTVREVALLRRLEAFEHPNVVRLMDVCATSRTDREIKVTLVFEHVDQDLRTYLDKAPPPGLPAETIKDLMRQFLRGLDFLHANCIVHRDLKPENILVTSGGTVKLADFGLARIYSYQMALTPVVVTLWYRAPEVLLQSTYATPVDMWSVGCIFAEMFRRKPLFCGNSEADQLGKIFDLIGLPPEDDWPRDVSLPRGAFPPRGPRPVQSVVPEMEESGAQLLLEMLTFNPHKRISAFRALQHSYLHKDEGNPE

[16] = biological target: NUAK family SNF1-like kinase 1 (Homo sapiens) (UniProt O60285); test: Inhibition of wild-type human partial length ARK5 (E25 to I332 residues) expressed in bacterial expression system assessed as residual activity at 1 uM by Kinomescan method relative to control
Chain of NUAK family SNF1-like kinase 1 (Homo sapiens) (O60285 whole entry, the tested form may be a part): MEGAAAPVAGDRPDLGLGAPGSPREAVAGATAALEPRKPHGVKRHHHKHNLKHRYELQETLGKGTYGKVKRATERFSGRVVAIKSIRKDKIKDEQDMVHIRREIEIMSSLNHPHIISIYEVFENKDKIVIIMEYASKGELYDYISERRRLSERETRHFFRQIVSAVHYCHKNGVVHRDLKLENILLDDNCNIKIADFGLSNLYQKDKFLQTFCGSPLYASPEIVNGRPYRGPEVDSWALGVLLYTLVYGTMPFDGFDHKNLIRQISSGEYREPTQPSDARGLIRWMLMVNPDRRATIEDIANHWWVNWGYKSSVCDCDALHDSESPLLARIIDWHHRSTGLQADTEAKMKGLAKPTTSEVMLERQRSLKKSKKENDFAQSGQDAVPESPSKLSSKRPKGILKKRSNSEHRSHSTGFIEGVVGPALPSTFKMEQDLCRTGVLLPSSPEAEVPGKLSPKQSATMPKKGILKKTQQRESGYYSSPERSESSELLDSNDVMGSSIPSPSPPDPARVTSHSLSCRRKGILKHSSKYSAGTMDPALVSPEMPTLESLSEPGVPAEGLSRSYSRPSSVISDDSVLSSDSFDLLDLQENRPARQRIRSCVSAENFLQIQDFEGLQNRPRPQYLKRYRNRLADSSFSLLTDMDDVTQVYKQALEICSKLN

[17] = biological target: Activin receptor type-1B (Homo sapiens) (UniProt P36896); test: Inhibition of wild-type human ACVR1B (S187 to I505 residues) expressed in bacterial expression system assessed as residual activity at 1 uM by Kinomescan method relative to control
[18] = biological target: G protein-coupled receptor kinase 3 (Homo sapiens) (UniProt P35626); test: Inhibition of wild-type human full length GRK3 (M1 to L688 residues) expressed in mammalian expression system assessed as residual activity at 1 uM by Kinomescan method relative to control
[19] = biological target: Mitogen-activated protein kinase 14 (Homo sapiens) (UniProt Q16539); test: Inhibition of wild-type human full length p38-alpha (M1 to S360 residues) expressed in bacterial expression system assessed as residual activity at 1 uM by Kinomescan method relative to control
[20] = biological target: Ribosomal protein S6 kinase alpha-5 (Homo sapiens) (UniProt O75582); test: Inhibition of wild-type human partial length C-terminal RPS6KA5 kinase domain 2 (V390 to T718 residues) expressed in bacterial expression system assessed as residual activity at 1 uM by Kinomescan method relative to control
Chain of Ribosomal protein S6 kinase alpha-5 (Homo sapiens) (O75582 whole entry, looked up, the tested form may be a part): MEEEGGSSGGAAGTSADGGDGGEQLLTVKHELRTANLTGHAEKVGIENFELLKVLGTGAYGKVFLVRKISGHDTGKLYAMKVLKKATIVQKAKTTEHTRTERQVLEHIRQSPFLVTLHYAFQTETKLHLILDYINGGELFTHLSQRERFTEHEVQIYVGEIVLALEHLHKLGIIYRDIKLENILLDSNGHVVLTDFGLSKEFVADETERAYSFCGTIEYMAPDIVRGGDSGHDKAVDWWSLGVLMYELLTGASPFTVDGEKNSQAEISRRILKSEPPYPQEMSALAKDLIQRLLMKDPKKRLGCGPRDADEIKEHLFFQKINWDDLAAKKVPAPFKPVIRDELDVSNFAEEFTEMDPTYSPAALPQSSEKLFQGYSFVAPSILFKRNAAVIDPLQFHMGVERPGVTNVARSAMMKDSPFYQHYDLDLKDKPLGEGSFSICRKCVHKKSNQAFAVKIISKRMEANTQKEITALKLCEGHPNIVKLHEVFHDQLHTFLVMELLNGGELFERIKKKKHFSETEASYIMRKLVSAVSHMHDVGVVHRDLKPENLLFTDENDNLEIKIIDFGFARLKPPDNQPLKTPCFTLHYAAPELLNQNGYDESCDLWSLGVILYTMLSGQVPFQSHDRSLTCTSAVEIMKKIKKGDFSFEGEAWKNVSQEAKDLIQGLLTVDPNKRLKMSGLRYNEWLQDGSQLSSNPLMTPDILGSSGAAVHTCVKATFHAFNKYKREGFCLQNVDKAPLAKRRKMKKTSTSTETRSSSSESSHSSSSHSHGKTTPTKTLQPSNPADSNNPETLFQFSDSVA

[21] = Elimination half-life in Sprague-Dawley rat at 1 mg/kg, iv by LC-MS/MS method; assay type: ADME, organism-based; conditions: in vivo, read-out: beta t1/2 (converted)
[22] = biological target: Activated CDC42 kinase 1 (Homo sapiens) (UniProt Q07912); test: Inhibition of wild-type human partial length TNK2 (S159 to D474 residues) expressed in bacterial expression system assessed as residual activity at 1 uM by Kinomescan method relative to control
Chain of Activated CDC42 kinase 1 (Homo sapiens) (Q07912 whole entry, looked up, the tested form may be a part): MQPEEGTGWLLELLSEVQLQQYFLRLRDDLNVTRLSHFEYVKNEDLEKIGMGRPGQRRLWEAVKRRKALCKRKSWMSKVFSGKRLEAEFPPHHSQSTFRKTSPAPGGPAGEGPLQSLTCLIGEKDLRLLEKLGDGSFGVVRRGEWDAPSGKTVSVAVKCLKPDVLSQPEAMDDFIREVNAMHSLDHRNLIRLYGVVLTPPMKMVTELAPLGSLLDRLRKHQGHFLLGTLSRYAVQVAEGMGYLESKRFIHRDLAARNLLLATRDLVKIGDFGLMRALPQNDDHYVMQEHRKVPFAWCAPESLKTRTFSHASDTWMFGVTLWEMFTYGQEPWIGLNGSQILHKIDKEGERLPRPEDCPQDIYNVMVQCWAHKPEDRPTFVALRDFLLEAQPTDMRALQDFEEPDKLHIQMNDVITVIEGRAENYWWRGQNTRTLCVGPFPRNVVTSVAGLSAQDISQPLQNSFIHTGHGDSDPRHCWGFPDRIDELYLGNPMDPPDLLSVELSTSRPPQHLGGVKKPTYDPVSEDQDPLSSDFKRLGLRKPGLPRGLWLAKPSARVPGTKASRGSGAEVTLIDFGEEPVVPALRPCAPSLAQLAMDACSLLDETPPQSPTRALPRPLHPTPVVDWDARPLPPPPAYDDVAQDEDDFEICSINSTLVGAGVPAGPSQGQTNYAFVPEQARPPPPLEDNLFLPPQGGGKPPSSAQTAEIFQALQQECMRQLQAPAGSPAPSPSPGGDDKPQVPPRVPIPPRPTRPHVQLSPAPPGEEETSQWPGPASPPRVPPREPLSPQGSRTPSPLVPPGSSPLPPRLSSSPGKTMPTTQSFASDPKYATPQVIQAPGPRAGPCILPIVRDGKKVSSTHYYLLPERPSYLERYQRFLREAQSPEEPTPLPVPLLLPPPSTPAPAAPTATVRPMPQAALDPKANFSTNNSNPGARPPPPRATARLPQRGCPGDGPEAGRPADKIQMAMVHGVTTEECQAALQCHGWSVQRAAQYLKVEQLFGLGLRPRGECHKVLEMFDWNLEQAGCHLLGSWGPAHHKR

[23] = biological target: Fibroblast growth factor receptor 2 (Homo sapiens) (UniProt P21802); test: Inhibition of wild-type human partial length FGFR2 (D457 to E769 residues) expressed in bacterial expression system assessed as residual activity at 1 uM by Kinomescan method relative to control
[24] = biological target: Cyclin-dependent kinase 17 (Homo sapiens) (UniProt Q00537); test: Inhibition of wild-type human full length PCTK2 (M1 to F523 residues) expressed in bacterial expression system assessed as residual activity at 1 uM by Kinomescan method relative to control
Chain of Cyclin-dependent kinase 17 (Homo sapiens) (Q00537 whole entry, looked up, the tested form may be a part): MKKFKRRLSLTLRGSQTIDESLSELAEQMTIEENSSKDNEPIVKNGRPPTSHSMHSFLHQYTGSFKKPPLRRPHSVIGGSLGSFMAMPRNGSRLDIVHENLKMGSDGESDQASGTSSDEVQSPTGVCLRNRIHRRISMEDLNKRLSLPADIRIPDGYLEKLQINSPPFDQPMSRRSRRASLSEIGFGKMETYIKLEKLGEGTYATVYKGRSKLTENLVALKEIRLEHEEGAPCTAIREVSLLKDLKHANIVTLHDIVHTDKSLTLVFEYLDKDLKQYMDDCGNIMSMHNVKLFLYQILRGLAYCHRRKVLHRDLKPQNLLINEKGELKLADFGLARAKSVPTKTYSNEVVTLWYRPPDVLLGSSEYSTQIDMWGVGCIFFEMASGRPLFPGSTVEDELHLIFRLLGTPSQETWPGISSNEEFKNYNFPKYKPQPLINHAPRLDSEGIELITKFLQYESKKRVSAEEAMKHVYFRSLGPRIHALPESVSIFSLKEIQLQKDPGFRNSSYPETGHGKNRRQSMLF

[25] = biological target: Mitogen-activated protein kinase kinase kinase 3 (Homo sapiens) (UniProt Q99759); test: Inhibition of wild-type human partial length MAP3K3 (E320 to Y626 residues) expressed in mammalian expression system assessed as residual activity at 1 uM by Kinomescan method relative to control

Chain of Serine/threonine-protein kinase BRSK1 (Homo sapiens) (Q8TDC3 whole entry, the tested form may be a part): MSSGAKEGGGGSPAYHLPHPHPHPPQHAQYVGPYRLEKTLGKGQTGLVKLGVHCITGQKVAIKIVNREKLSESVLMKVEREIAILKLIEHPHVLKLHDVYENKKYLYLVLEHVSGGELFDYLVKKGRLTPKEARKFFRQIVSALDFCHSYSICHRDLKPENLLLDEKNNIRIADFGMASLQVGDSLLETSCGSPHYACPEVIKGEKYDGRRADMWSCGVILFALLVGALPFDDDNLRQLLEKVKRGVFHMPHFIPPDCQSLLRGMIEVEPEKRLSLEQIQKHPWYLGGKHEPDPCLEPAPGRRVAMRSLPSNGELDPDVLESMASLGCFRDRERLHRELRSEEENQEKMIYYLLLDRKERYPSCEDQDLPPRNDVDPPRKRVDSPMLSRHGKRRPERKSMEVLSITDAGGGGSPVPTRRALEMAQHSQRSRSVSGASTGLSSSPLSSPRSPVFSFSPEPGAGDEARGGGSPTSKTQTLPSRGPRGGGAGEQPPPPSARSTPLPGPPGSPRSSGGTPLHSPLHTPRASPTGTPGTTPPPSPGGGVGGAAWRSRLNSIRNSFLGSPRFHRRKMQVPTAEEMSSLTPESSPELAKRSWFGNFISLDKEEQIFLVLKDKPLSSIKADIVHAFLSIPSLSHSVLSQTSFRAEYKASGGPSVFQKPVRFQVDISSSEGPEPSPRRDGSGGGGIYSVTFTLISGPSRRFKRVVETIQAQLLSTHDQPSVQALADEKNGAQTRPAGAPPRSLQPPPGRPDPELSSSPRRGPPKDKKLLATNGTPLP

SMILES: C=CC(=O)Nc1cc(Nc2cc(-c3cccc(NC(=O)c4ccc(C(C)(C)C)cc4)c3C)cn(C)c2=O)ccc1C(=O)N1CCOCC1
- Activity [1]: 100%
- Activity [2]: 91%
- Activity [3]: 97%
- Activity [4]: 97%
- Activity [5]: 98%
- Activity (Pfeiffer): Dose-dependent effect
- Activity [6]: 75%
- Activity [7]: 100%
- Activity [8]: 96%
- Activity [9]: 77%
- Activity [10]: 100%
- Activity [11]: 79%
- Activity [12]: 100%
- Activity [13]: 99%
- MRT last [14]: 81.6 min
- Activity [15]: 100%
- Activity [16]: 100%
- Activity [17]: 100%
- Activity [18]: 73%
- Activity [19]: 100%
- Activity [20]: 100%
- half-life [21]: 13.8 min
- Activity [22]: 95%
- Activity [23]: 74%
- Activity [24]: 100%
- Activity [25]: 100%
